The pKa is the negative logarithm of the acid dissociation constant. Read a high pKa as a group that holds its proton tightly.

Molecules are shown by their SMILES.

Data on 19 molecules can be found in patent publication US12065396B2, “Lipids for use in lipid nanoparticle formulations” (ACUITAS THERAPEUTICS, INC., priority 2017, dated 2024).

The nature of series [1]: Determination of pKa of formulated lipids (TNS fluorescence assay in lipid nanoparticles). It counts as physicochemical. The source says:
As described elsewhere, the pKa of formulated lipids was correlated with the effectiveness of LNPs for delivery of nucleic acids (see Jayaraman et al, Angewandte Chemie, International Edition (2012), 51(34), 8529-8533; Semple et al, Nature Biotechnology 28, 172-176 (2010)). In some embodiments, the preferred range of pKa was ˜5 to ˜7. […] Lipid nanoparticles comprising compound of structure (I)/DSPC/cholesterol/PEG-lipid (50/10/38.5/1.5 or 47.5:10:40.8:1.7 mol %) in PBS at a concentration of 0.4 mM total lipid were prepared using the in-line process as described in Example 1. TNS was prepared as a 100 μM stock solution in distilled water. Vesicles were diluted to 24 μM lipid in 2 mL of buffered solutions containing 10 mM HEPES, 10 mM MES, 10 mM ammonium acetate, and 130 mM NaCl, where the pH ranged from 2.5 to 11. An aliquot of the TNS solution was added to give a final concentration of […] and following vortex mixing fluorescence intensity was measured at room temperature in a SLM Aminco Series 2 Luminescence Spectrophotometer using excitation and emission wavelengths of 321 nm and 445 nm. A sigmoidal best fit analysis was applied to the fluorescence data and the pKa was measured as the pH giving rise to half-maximal fluorescence intensity.

The test system of series [2] is luciferase expression in the liver. In words: Luciferase mRNA in vivo evaluation using lipid nanoparticle compositions. More on the design: species or system mice. Conditions: for Liver Luc (ng luc/g liver), *dosed at 1.0 mg/kg: 1.0 mg mRNA/kg (footnote *); for Liver Luc (ng luc/g liver), *dosed at 1.0 mg/kg / Liver Luc @ 0.5 mg/kg (ng luc/g liver): tail vein injection, liver 4 hours after administration; for Relative activity in the luciferase assay relative to MC3: liver luciferase expression 4 hours after tail vein injection, 47.5/10/40.8/1.7 cationic lipid/DSPC/cholesterol/PEG-DMA; for Liver Luc @ 0.5 mg/kg (ng luc/g liver): 0.5 mg mRNA/kg. The procedure:
A lipid of structure (I), DSPC, cholesterol and PEG-lipid were solubilized in ethanol at a molar ratio of 50:10:38.5:1.5 or 47.5:10:40.8:1.7. Lipid nanoparticles (LNP) were prepared at a total lipid to mRNA weight ratio of approximately 10:1 to 30:1. Briefly, the mRNA was diluted to 0.2 mg/mL in 10 to 50 mM citrate buffer, pH 4. Syringe pumps were used to mix the ethanolic lipid solution with the mRNA aqueous solution at a ratio of about 1:5 to 1:3 (vol/vol) with total flow rates above 15 mL/min. The ethanol was then removed and the external buffer replaced with PBS by dialysis. Finally, the lipid nanoparticles were filtered through a 0.2 μm pore sterile filter.
Studies were performed in 6-8 week old female C57BL/6 mice (Charles River) 8-10 week old CD-1 (Harlan) mice (Charles River) according to guidelines established by an institutional animal were committee (ACC) and the Canadian Council on Animal Cwere (CCAC). Varying doses of mRNA-lipid nanoparticle were systemically administered by tail vein injection and animals euthanized at a specific time point (e.g., 4 hours) post-administration. Liver and spleen were collected in pre-weighed tubes, weights determined, immediately snap frozen in liquid nitrogen and stored at −80° C. until processing for analysis.
For liver, approximately 50 mg was dissected for analyses in a 2 mL FastPrep tubes (MP Biomedicals, Solon Ohio). ¼″ ceramic sphere (MP Biomedicals) was added to each tube and 500 μL of Glo Lysis Buffer—GLB (Promega, Madison Wis.) equilibrated to room temperature was added to liver tissue. Liver tissues were homogenized with the FastPrep24 instrument (MP Biomedicals) at 2×6.0 m/s for 15 seconds. Homogenate was incubated at room temperature for 5 minutes prior to a 1:4 dilution in GLB and assessed using SteadyGlo Luciferase assay system (Promega). Specifically, 50 μL of diluted twassue homogenate was reacted with 50 μL of SteadyGlo substrate, shaken for 10 seconds followed by 5 minute incubation and then quantitated using a CentroXS^3 LB 960 luminometer (Berthold Technologies, Germany). The amount of protein assayed was determined by using the BCA protein assay kit (Pierce, Rockford, Ill.). Relative luminescence units (RLU) were then normalized to total g protein assayed. To convert RLU to ng luciferase a standard curve was generated with QuantiLum Recombinant Luciferase (Promega).
The FLuc mRNA (L-6107 or L-7602) from Trilink Biotechnologies will express a luciferase protein, originally isolated from the firefly, Photinus pyralwas. FLuc was commonly used in mammalian cell culture to measure both gene expression and cell viability. It emits bioluminescence in the presence of the substrate, luciferin. This capped and polyadenylated mRNA was fully substituted with 5-methylcytidine and pseudouridine.
Compounds of structure (I) were formulated using the following molar ratio: 47.5% cationic lipid/10% dwastearoylphosphatidylcholine (DSPC)/40.8% Cholesterol/1.7% PEG lipid (“PEG-DMA” 2-[2-(ω-methoxy(polyethyleneglycol2000)ethoxy]-N,N-ditetradecylacetamide). Relative activity was determined by measuring luciferase expression in the liver 4 hours following administration via tail vein injection as described in Example 1. […]
The cationic lipids shown in Table 2 have previously been tested with nucleic acids. For comparative purposes, these lipids were also used to formulate lipid nanoparticles containing the FLuc mRNA (L-6107) using an in line mixing method, as described in Example 1 and in PCT/US10/22614, which is hereby incorporated by reference in its entirety. Lipid nanoparticles may be formulated using the following molar ratio: 50% Cationic lipid/10% distearoylphosphatidylcholine (DSPC)/38.5% Cholesterol/1.5% PEG lipid (“PEG-DMG”, i.e., 1-(monomethoxy-polyethyleneglycol)-2,3-dimyristoylglycerol, with an average PEG molecular weight of 2000). In alternate embodiments, cationic lipid, DSPC, cholesterol and PEG-lipid are formulated at a molar ratio of approximately 47.5:10:40.8:1.7. […]

Setting [3] is: TNS fluorescence, pH giving half-maximal fluorescence intensity, values in text.

In series [1] (setting [3]), `CCCCCCCCCN(CCCN(C)C(C)=O)C(CCCCCCCCC(=O)OCC(CCCC)CCCCCC)CCCCCCCCC(=O)OCC(CCCC)CCCCCC` (stereo not drawn) [Compound 1] yielded a pKa of 4.69.

For the molecule `CCCCCCCCCN(CCCCC(=O)N(C)C)C(CCCCCCCCC(=O)OCC(CC)CCCC)CCCCCCCCC(=O)OCC(CC)CCCC` (stereo not drawn) [Compound 2], the pKa in series [1] (setting [3]) is 4.74.

Regarding `CCCCC(CC)COC(=O)CCCCCCCCC(CCCCCCCCC(=O)OCC(CC)CCCC)NCCCCC(=O)OCc1ccccc1` (stereo not drawn) [Compound 3], in series [2], the “Liver Luc (ng luc/g liver), *dosed at 1.0 mg/kg” value (from here on “Liver Luc (ng luc/g liver)”) is on record as 1370 ± 674* ng luc/g liver and the “Relative activity in the luciferase assay relative to MC3” value is recorded as 3.68. The pKa in series [1] (setting [3]) is 6.53. Also, the pKa in series [1] (Table 3, TNS assay) came to 6.38.

Turning to `CCCCCCC(CCCC)COC(=O)CCCCCCCCC(CCCCCCCCC(=O)OCC(CCCC)CCCCCC)N(CCCCN(C)C)C(=O)C(CC)CCCC` (stereo not drawn) [Compound 4], in series [2], the “Liver Luc (ng luc/g liver)” value was 1213 ± 702* ng luc/g liver. In addition, the pKa in series [1] (setting [3]) stood at 6.49; in series [1] (Table 3, TNS assay), 6.37.

Consider `CCCCCCCCC(=O)N(CCCCN(C)C)C(CCCCCCCCC(=O)OCC(CCCC)CCCCCC)CCCCCCCCC(=O)OCC(CCCC)CCCCCC` (stereo not drawn) [Compound 5], for which, in series [2], the “Liver Luc (ng luc/g liver)” value was 1422 ± 372* ng luc/g liver and the “Relative activity in the luciferase assay relative to MC3” value is listed as 6.4. Besides, the pKa in series [1] (setting [3]) came to 6.69. The same molecule showed a pKa in series [1] (Table 3, TNS assay) of 6.69.

Turning to `CCCCCCCCCN(CCCCC(=O)NCCO)C(CCCCCCCCC(=O)OCC(CCCC)CCCCCC)CCCCCCCCC(=O)OCC(CCCC)CCCCCC` (stereo not drawn) [Compound 6], the “Liver Luc (ng luc/g liver)” value in series [2] is 318 ± 222* ng luc/g liver. In series [1] (Table 3, TNS assay), this molecule came in with a pKa of 6.1.

Regarding `CCCCCCCCCN(CCCCC(=O)N(C)CCO)C(CCCCCCCCC(=O)OCC(CCCC)CCCCCC)CCCCCCCCC(=O)OCC(CCCC)CCCCCC` (stereo not drawn) [Compound 7], in series [2], the “Liver Luc (ng luc/g liver)” value is 33 ± 18* ng luc/g liver. This molecule gave a pKa in series [1] (Table 3, TNS assay) of 5.83.

Turning to `CCCCCCC(CCCC)COC(=O)CCCCCCCCC(CCCCCCCCC(=O)OCC(CCCC)CCCCCC)NCCCCC(=O)OCc1ccccc1` (stereo not drawn) [Compound 8], the “Liver Luc (ng luc/g liver)” value in series [2] is recorded as 550 ± 164* ng luc/g liver. Besides, the pKa in series [1] (Table 3, TNS assay) was 6.09.

Turning to `CCCCCCC(CCCC)COC(=O)CCCCCCCCC(CCCCCCCCC(=O)OCC(CCCC)CCCCCC)N(C)CCCO` (stereo not drawn) [Compound 9], in series [2], the “Liver Luc (ng luc/g liver)” value is given as 7628 ± 3298* ng luc/g liver. In series [1] (Table 3, TNS assay), the pKa is 6.29.

Regarding `CCCCCCC(CCCC)COC(=O)CCCCCCCCC(CCCCCCCCC(=O)OCC(CCCC)CCCCCC)NCCCO` (stereo not drawn) [Compound 11], the pKa in series [1] (setting [3]) came to 8.04.

In series [1] (setting [3]), `CCCCCCCCCN(CCCO)C(CCCCCCCCC(=O)OCC(CCCC)CCCCCC)CCCCCCCCC(=O)OCC(CCCC)CCCCCC` (stereo not drawn) [Compound 12] registered a pKa of 4.84.

On to `CCCCCCC(CCCC)COC(=O)CCCCCCCCC(CCCCCCCCC(=O)OCC(CCCC)CCCCCC)N(CC)CCCO` (stereo not drawn) [Compound 13], for which the “Liver Luc @ 0.5 mg/kg (ng luc/g liver)” value in series [2] came out at 514 ± 297 ng luc/g liver. For the same molecule, in series [1] (Table 3, TNS assay), the pKa was 6.03.

In the case of `CCCCCCC(CCCC)COC(=O)CCCCCCCCC(CCCCCCCCC(=O)OCC(CCCC)CCCCCC)N(CC)CCCCO` (stereo not drawn) [Compound 14], in series [2], the “Liver Luc @ 0.5 mg/kg (ng luc/g liver)” value turned out to be 238 ± 70 ng luc/g liver. In series [1] (Table 3, TNS assay), this molecule yielded a pKa of 6.19.

Turning to `CCCCCCCCC(CCCCCC)COC(=O)CCCCCC(CCCCCC(=O)OCC(CCCCCC)CCCCCCCC)N(CC)CCCCO` (stereo not drawn) [Compound 15], in series [2], the “Liver Luc @ 0.5 mg/kg (ng luc/g liver)” value is 345 ± 141 ng luc/g liver. Moreover, in series [1] (Table 3, TNS assay), the pKa stood at 6.12.

Take `CCCCCCC(CCCC)COC(=O)CCCCCCCCC(CCCCCCCCC(=O)OCC(CCCC)CCCCCC)N(C)CCCCO` (stereo not drawn) [Compound 16]: the “Liver Luc @ 0.5 mg/kg (ng luc/g liver)” value in series [2] was 2004 ± 582 ng luc/g liver. In series [1] (Table 3, TNS assay), this molecule had a pKa of 6.43.

For `CCCCCCCCC(CCCCCC)COC(=O)CCCCCC(CCCCCC(=O)OCC(CCCCCC)CCCCCCCC)N(C)CCCO` (stereo not drawn) [Compound 17], the “Liver Luc @ 0.5 mg/kg (ng luc/g liver)” value in series [2] is listed as 405 ± 227 ng luc/g liver. In series [1] (Table 3, TNS assay), this molecule gave a pKa of 6.39.

With `CCCCCCCCC(CCCCCC)COC(=O)CCCCCC(CCCCCC(=O)OCC(CCCCCC)CCCCCCCC)N(C)CCCCO` (stereo not drawn) [Compound 18], the “Liver Luc @ 0.5 mg/kg (ng luc/g liver)” value in series [2] worked out at 1506 ± 429 ng luc/g liver. In addition, the pKa in series [1] (Table 3, TNS assay) worked out at 6.45.

As for `CCCCCCC(CCCC)C(=O)OCCCCCCCCCC(CCCCCCCCCOC(=O)C(CCCC)CCCCCC)N(C)CCCO` (stereo not drawn) [Compound 19], the “Liver Luc @ 0.5 mg/kg (ng luc/g liver)” value in series [2] worked out at 216 ± 85 ng luc/g liver. This molecule came in with a pKa in series [1] (Table 3, TNS assay) of 6.31.

Consider `CCCCCCCCC(CCCCCC)COC(=O)CCCCCC(CCCCCC(=O)OCC(CCCCCC)CCCCCCCC)N(C)CCO` (stereo not drawn) [Compound 20], for which the “Liver Luc @ 0.5 mg/kg (ng luc/g liver)” value in series [2] is 92 ± 48 ng luc/g liver. Moreover, the pKa in series [1] (Table 3, TNS assay) stood at 6.25.
